Patent US10058587B2, “Peptide composition for cancer treatment by inhibiting TRPV6 calcium channel activity” (priority 2008, dated 2018)
Where no end group is shown, it is not given here.

What was measured:
human TRPV6b = biological target: T1, human TRPV6b (Homo sapiens, UniProt Q9H1D0); assay: Whole-cell patch clamp of calcium store operated current (ISOC) through TRPV6 in transfected LnCaP cells; assay type: cell-based
T1 construct: expressed in transfected cells; host or cells: LnCaP (ATCC CRL-1740), human lymph node prostate cancer cells
T1 sequence (Q9H1D0 41-765 limits assumed): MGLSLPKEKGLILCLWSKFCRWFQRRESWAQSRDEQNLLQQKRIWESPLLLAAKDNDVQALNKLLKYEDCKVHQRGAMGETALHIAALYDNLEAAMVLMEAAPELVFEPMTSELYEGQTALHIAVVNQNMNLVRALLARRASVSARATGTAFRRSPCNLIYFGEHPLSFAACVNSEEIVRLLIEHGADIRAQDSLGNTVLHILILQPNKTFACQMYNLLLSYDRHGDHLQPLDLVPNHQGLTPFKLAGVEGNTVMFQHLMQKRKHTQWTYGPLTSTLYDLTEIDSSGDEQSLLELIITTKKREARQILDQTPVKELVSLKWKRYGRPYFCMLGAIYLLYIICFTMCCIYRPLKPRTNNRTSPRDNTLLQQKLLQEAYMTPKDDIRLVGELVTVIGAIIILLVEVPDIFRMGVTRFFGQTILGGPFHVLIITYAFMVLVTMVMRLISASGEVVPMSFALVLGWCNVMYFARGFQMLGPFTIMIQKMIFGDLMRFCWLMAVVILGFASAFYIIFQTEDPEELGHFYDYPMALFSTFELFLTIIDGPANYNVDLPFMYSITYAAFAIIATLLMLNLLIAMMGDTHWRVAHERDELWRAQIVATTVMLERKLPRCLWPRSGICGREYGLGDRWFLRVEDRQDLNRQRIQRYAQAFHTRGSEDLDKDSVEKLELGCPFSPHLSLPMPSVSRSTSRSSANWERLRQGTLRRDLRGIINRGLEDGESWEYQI
Experimental: An expression vector (pCAGS-IRES-hTRPV6b) (Bodding et al. 2003) containing the nucleotide code for human TRPV6b was transfected into and expressed by human lymph node prostate cancer (LnCaP, ATCC CRL-1740). Patch clamping with whole-cell current acquisition was used to measure the calcium current through this channel. Cells were treated and calcium store operated current (ISOC) was measured with either SorC13 (n=90) or SorC27 (n=30) in a closed-circuit perfusion for 3 min at each of cumulative concentrations of 0 (baseline), 100 nM, 500 nM 1 uM, 30 uM and 100 uM. Washout perfusion was done at 2 mL/min for 3 min. […] Further, both C-peptides are very strong inhibitors of calcium current through the TRPV6 channel with inhibition constants in the 100 nM range.

[1] = Clearance route in iv mice; details: i.v.
[2] = test system: CaOV3 ovarian cancer cell line; assay: Induction of apoptosis (APO-ONE caspase 3/7) and cell viability (CellTiter Blue); assay type: cell-based, human; set-up: key to Decline in cell viability: decreased (+); or not (−)
Experimental: CAOV-3 was cultured in Dulbecco's Modified Eagle Medium (4.5 g/L glucose) with 4 mM L-glutamine, 1.5 g/L sodium bicarbonate and 10% (v/v) fetal bovine serum.
The levels of apoptotic induction and cell viability were determined by multiplexing the measurements for single samples. CellTiter Blue and APO-ONE assay systems from Promega allows the determination of cell viability correlated to cell number, and induction of apoptosis. This protocol uses a fluorgenic peptide that contains a peptide recognition-sequence for caspase 3 and caspase 7, […] proteolytic enzymes of the apoptosis cascade. The CellTiter Blue reagent was added to wells in a 96-well plate containing cells under test, immediately after addition of peptide solution or vehicle. About 5000 cells were plated into the wells the day before. At the chosen time (Day 1, Day 2 etc.) the fluorescence was measured at 590 nm (emission) after excitation at 560 nm. The caspase 3/7 activity was measured (485 nm Ex/527 nm Em) in the same wells after adding 120 uL of the Apo-ONE reagent, freeze fracturing at −80° C. for 1 hr, and incubating for 1 hr at room temperature.
For this work, the concentrations of SorC13 and SorC27 used were 0 uM, 1 uM, 10 uM and 100 uM. The experiments extended over a 5 to 7 day period. All measurements were done in quadruplicate with both a blank (no cells) and control (vehicle, no peptide) used to correct the test measurements. The time-response data, and the dose-response data were plotted as means±standard error of the mean. Any statistical comparisons were done with the Student's t-test or by ANOVA analysis over the dose course. The level of statistical significance was considered to be the 95% confidence interval (i.e., p≤0.05).
To compare the effect of the two SorC-peptides against the gold-standard treatment for ovarian cancers SorC13 or SorC27 was compared to treatment with a carboplatin and taxol (CAT) cocktail (10 uM Paclitaxel, 20 mM carboplatin) using the APO-ONE assay, which measures the combined activities of caspase 3 and caspase 7. […]

[3] = test system: T47D breast cancer xenografts; assay: T-47D breast cancer xenograft, SorC13 with Paclitaxel (Example 27); assay type: in vivo, NOD/SCID mice
Experimental: Tumor volumes (V) were calculated by caliper measurement using standard measurements of the width (W), length (L) and thickness (T) of tumors. Animals were randomized into treatment groups so that the median tumor volumes of each group were similar at the start of dosing. Percentage ΔT/ΔC values, as a measure of efficacy, were determined where ΔC refers to change in volume of control or untreated tumor, and ΔT refers to change in volume of treated tumor.
Animals were intraperitoneally (i.p.) injected with the vehicular control, or the low, medium or high doses of CAT or CAT and SorC13. Mice received low medium or high doses of CAT or CAT and SorC13 by i.p. injection every day for 12 days or CAT injections as set out in Table 10. Paclitaxel was injected first, followed by carboplatin 30 minutes later and then SorC13. The tumor volume and body weights were measured every day. As well, general health of the animals was monitored every day.
The human […] breast cancer cell line T-47D (ATCC #HTB-133), was cultured in growth media prepared with ATCC complete growth medium. The base medium for the T-47D cell line is ATCC-formulated RPMI-1640 Medium. The complete growth medium is supplemented with 0.2 Units/ml bovine insulin and fetal bovine serum to a final concentration of 10% (v/v). Cells were cultured at 37° C. in an atmosphere of 95% air and 5% carbon dioxide with sub-culturing done according to ATCC guidelines.
The cell preparation, formulation, implantation, measurement and treatment procedures were otherwise as described in Example 26 and Table 10 but with Paclitaxel at low (6 mg/kg), medium (10 mg/kg) and high (16 mg/kg) doses.

Sequence | IC50 (human TRPV6b) [nM] | Kd (human TRPV6b) [nM] | Clearance route in iv mice @ 5 mg/kg [1] | apoptosis (treatment:control ratio) compared with CAT cocktail ([2]; CAT = 10 uM Paclitaxel, 20 mM carboplatin) | Apoptosis Index (1 = no effect) ([2]; Day5, SorC13 100 uM) | Decline in cell viability ([2]; Day5, SorC13 100 uM) | % ΔT/ΔC (tumor volume normalized to control) ([3]; Day 6, SorC13 300 mg/kg) [%] | % ΔT/ΔC (tumor volume normalized to control) ([3]; Day 12, SorC13 300 mg/kg) [%] | % ΔT/ΔC (tumor volume normalized to control) ([3]; Day 18 (rest period), SorC13 300 mg/kg) [%] | % ΔT/ΔC (tumor volume normalized to control) ([3]; Day 24 (rest period), SorC13 300 mg/kg) [%] | Mean tumour volume ([3]; after 12-day rest post-treatment, SorC13 300 mg/kg) [mm^3] | Mean tumor volume ([3]; day 12 of treatment, SorC13 300 mg/kg i.p. daily) [mm^3]
EGKLSSNDTEGGLCKEFLHPSKVDLPR [SorC27] | 140 | 140 | Rapid via kidney. | – | – | – | – | – | – | – | – | –
KEFLHPSKVDLPR [SorC13, KEFLHPSKVDLPR] | – | – | – | produced earlier and more intense apoptosis cascade than the CAT cocktail | 2.7 | + | 66.0 | 1.0 | 54.5 | 48.7 | 55.76 | 43.61
